According to US9708608B2, “Methods for producing a population of pancreatic beta-cells” (priority 2012, dated 2017):

What was measured:
[1] = system: Ngn3; assay: Ngn3 immunohistochemistry in GABA-treated pancreata; format: in vivo, mouse; conditions: no Ngn3 expression in control animals
Experimental: Immunohistochemistry: Tissues were fixed in 4% PFA for 30 min at 4° C., embedded in paraffin and 8 μm sections applied to slides. These sections were assayed as described previously [Collombat et al., 2003]. The primary antibodies used were the following: guinea pig polyclonal anti-insulin (1/500-Linco), anti-glucagon (1/500-Milipore), mouse monoclonal anti-glucagon (1/500-Sigma), anti-BrdU (1/40-Roche), anti-E-cadherin (1/200-BD Transduction Lab), rat anti-somatostatin (1/250-Millipore), rabbit anti-Glut2 (1/5000), anti-PC1/3 (1/500-Milipore), anti-Nkx6.1 (1/3000-Novonordisk), anti-Pdx1 (1/1000), anti-NeuroD1 (1/200-Milipore), anti-Ngn3 (1/500-Abgent), anti-β-galactosidase (1/10000-Milipore), chicken anti vimentin (1/5000-Milipore), goat anti-osteopontin (1/200-R&D Systems). The secondary antibodies (1/1000-Molecular Probes) used were: 594- and 488-alexa anti-mouse; 594- and 488-alexa anti-rabbit; 594- and 488-alexa anti-guinea pig; 488-alexa anti-rat; 594- and 488-alexa anti-goat; 594- and 488-alexa anti-chicken. Pictures were processed using ZEISS Axioimager Z1 and LEICA DM 6000 B. For quantification purpose, stained cells were counted manually on every tenth section. […]

[2] = system: glucagon-expressing cells; assay: β-galactosidase lineage tracing in Glu-Cre::Rosa26-lox-β-gal mice treated with streptozotocin and GABA; format: in vivo, mouse; conditions: isolated 40 days post-streptozotocin injection, daily GABA
Experimental: β-galactosidase-based lineage-tracing experiments: Pancreatic tissues were isolated and fixed for 30 min at 4° C. in a solution containing 1% formaldehyde, 0.2% glutaraldehyde, 0.02% NP40. The tissues were dehydrated in 25% sucrose overnight at 4° C. Prior to sectioning, tissues were embedded in freezing medium. For β-galactosidase activity assessment, the tissues were washed in PBS and then incubated overnight in staining solution (500 mM K3Fe(CN)6, 250 mM K4Fe(CN)6, 0.5M MgCl2, 40 mg/ml X-gal in DMF).
Several examples, from unrelated islets, of cells co-expressing insulin with glucagon were noted. […] To validate this hypothesis, we used Glu-Cre::Rosa26-lox-β-gal mice. […] It is important to note that such double-positive cells (in lesser proportion) are also observed in GABA-treated Glu-Cre::Rosa26-lox-β-gal animals not subjected to streptozotocin administration.

[3] = system: WT mice; assay: Streptozotocin-mediated diabetes in WT mice treated with GABA; format: in vivo, mouse
Excerpt: (§1) FIG. 4: The β-like cell mass can be regenerated following streptozotocin treatment in GABA-treated mice, the neo-generated insulin^+ cells being functional. […] Such a recovery is associated with a clear regeneration of their β-cell mass monitored 5, 10, 25 and 45 days post-streptozotocin administration by immunochemistry. 85 days post-streptozotocin injection, GABA- and STZ-treated WT and non-treated controls were subjected to a glucose tolerance test (GTT) (B).
Induction of streptozotocin-mediated diabetes: To induce hyperglycaemia, STZ (Sigma) was dissolved in 0.1M sodium citrate buffer (pH 4.5), and a single dose was administered intraperitoneally (100 mg/kg) within 10 min of dissolution. Diabetes progression was assessed by the monitoring of blood glucose levels of the mice.
A functional β-cell mass can be regenerated following chemically-induced diabetes in GABA-treated animals: To determine whether neo-formed insulin^+ cells could functionally replace endogenous β-cells, we injected WT animals with a high dose of streptozotocin to obliterate the endogenous β-cell mass.

[4] = system: mice; conditions: streptozotocin-induced diabetes in mice (Soltani et al., 2011; Gomez et al., 2007); cited from earlier work
[5] = system: pancreatic cells of WT mice; assay: BrdU cell proliferation in GABA-treated WT mice; format: in vivo, mouse
Excerpt: Thus, to gain further insight into the mechanisms underlying these processes, we administered the thymidine analogue 5-bromo-2′-deoxyuridine (BrdU) to detect actively replicating cells. […] In addition, glucagon^+ and somatostatin^+ cells were not uniformly distributed within the islet mantle but rather found clustered at a pole of the islet, adjacent to neighboring ducts, unlike in controls where the distribution of the non-β-cells were found scattered in the mantle of the islets.

[6] = system: pancreatic islets of WT mice; assay: Quantification of islets and hormone-expressing cells in GABA-treated WT mice (immunohistochemistry, pixel counting); format: in vivo, mouse; conditions: versus aged-matched controls; for Glucagon+ cell count / Somatostatin+ cell count / Insulin+ cell count: pixel counting; for Insulin+ cell count / Islet count / Islet size: mean ± SEM; for Islet count / Islet size: treatment age 2.6 m
Experimental: (§2) Immunohistochemistry: Tissues were fixed in 4% PFA for 30 min at 4° C., embedded in paraffin and 8 μm sections applied to slides. These sections were assayed as described previously [Collombat et al., 2003]. The primary antibodies used were the following: guinea pig polyclonal anti-insulin (1/500-Linco), anti-glucagon (1/500-Milipore), mouse monoclonal anti-glucagon (1/500-Sigma), anti-BrdU (1/40-Roche), anti-E-cadherin (1/200-BD Transduction Lab), rat anti-somatostatin (1/250-Millipore), rabbit anti-Glut2 (1/5000), anti-PC1/3 (1/500-Milipore), anti-Nkx6.1 (1/3000-Novonordisk), anti-Pdx1 (1/1000), anti-NeuroD1 (1/200-Milipore), anti-Ngn3 (1/500-Abgent), anti-β-galactosidase (1/10000-Milipore), chicken anti vimentin (1/5000-Milipore), goat anti-osteopontin (1/200-R&D Systems). The secondary antibodies (1/1000-Molecular Probes) used were: 594- and 488-alexa anti-mouse; 594- and 488-alexa anti-rabbit; 594- and 488-alexa anti-guinea pig; 488-alexa anti-rat; 594- and 488-alexa anti-goat; 594- and 488-alexa anti-chicken. Pictures were processed using ZEISS Axioimager Z1 and LEICA DM 6000 B. For quantification purpose, stained cells were counted manually on every tenth section.
Cell counts: Quantitative analyses were performed by the counting of colored pixels on (immuno-) stained sections of pancreas using the Photoshop software. Specifically, every 10th section was processed using the same settings for all animals and genotypes.

[7] = Life expectancy, basal glycemia and general health of GABA-treated WT mice
[8] = system: NOD mice; conditions: NOD mice (Soltani et al., 2011; Tian et al., 2011); cited from earlier work
[9] = system: WT mice; assay: Glucose tolerance test in GABA- and STZ-treated WT mice; format: in vivo, mouse; conditions: surviving GABA-treated mice, 85 days post-streptozotocin, versus controls not treated with GABA or streptozotocin
Excerpt: as §1

[10] = system: Arx mRNA in α-TC1-6 cells; assay: Relative Arx mRNA expression in α-TC1-6 cells treated with GABA; format: cell-based; conditions: α-TC1-6 cell line, increasing GABA concentrations, different periods of time, versus non-treated cells
Experimental: Relative Arx mRNA expression was measured in the different conditions.
RNA Analysis: RNA was isolated (RNEASY® (RNA isolation kit), Qiagen) and cDNA synthesis ([…]® (cDNA synthesis kit) choice system, Invitrogen) was performed according to the manufacturer's instructions. Quantitative RT-PCR was carried out using validated primers (Qiagen) and the […]® SYBR Green RT-PCR Kit (Qiagen) following manufacturer's instructions. PCR reactions and detection were performed on a […]® ep realplex cycler using GAPDH and HPRT1 as internal controls for normalization purposes.

[11] = system: insulin+ cells; assay: Endocrine cell marker expression of insulin+ cells in GABA-treated pancreata (immunochemistry); format: in vivo, mouse; conditions: GABA-treated islets versus non-treated controls; Pdx1, Nkx6.1, NeuroD1, Glut 2, PC1/3, Pax6
Experimental: as §2
To ascertain the identity of the insulin^+ cells in GABA-treated pancreata, we assayed the expression of several endocrine cell marker genes by immunochemistry compared to non-treated controls. […]

Structure (SMILES): NCCCC(=O)O [GABA, gamma-amino butyric acid]
- Ngn3 expression [1]: reactivation of Ngn3 in the ductal environment
- Insulin and β-galactosidase co-labelling (conversion of glucagon-expressing cells) [2]: a majority of cells positive for insulin and β-galactosidase
- Regeneration of insulin+ cells after β-cell loss ([3]; GABA-treated WT animals after streptozotocin, immunohistochemistry at different time points): progressively regenerated
- Glycemia course after streptozotocin ([3]; WT mice, high dose STZ, GABA started at approximately 300 mg/dl, water controls died from extreme hyperglycemia): steady recovery
- Sensitivity to another round of streptozotocin ([3]; surviving GABA-treated mice, data not shown): not sensitive to STZ
- Blood glucose levels [4]: decrease blood glucose levels
- Location of BrdU+ proliferating cells ([5]; GABA-treated WT pancreata, BrdU for 10 days): predominantly located in the ductal lining and in the ductal epithelium
- β-cell proliferation ([5]; GABA-treated mice, relative to the size of the islets, data not shown): lack of a significant increase in β-cell proliferation
- Glucagon+ cell count ([6]; GABA 1 month): x 0.97
- Somatostatin+ cell count ([6]; GABA 1 month): x 1.43
- Insulin+ cell count ([6]; GABA 1 month): x 1.04 ± 0.15
- Islet count ([6]; GABA 1 month): x 2.19 ± 0.04
- Islet size ([6]; GABA 1 month): x 1.04 ± 0.15
- Glucagon+ cell count ([6]; GABA 2 months): x 1.91
- Somatostatin+ cell count ([6]; GABA 2 months): x 2.39
- Insulin+ cell count ([6]; GABA 2 months): x 2.15 ± 0.22
- Islet count ([6]; GABA 2 months): x 1.86 ± 0.05
- Islet size ([6]; GABA 2 months): x 2.15 ± 0.22
- Glucagon+ cell count ([6]; GABA 3 months): x 3.02
- Somatostatin+ cell count ([6]; GABA 3 months): x 2.84
- Insulin+ cell count ([6]; GABA 3 months): x 3.49 ± 0.11
- Islet count ([6]; GABA 3 months): x 1.80 ± 0.03
- Islet size ([6]; GABA 3 months): x 3.49 ± 0.11
- Viability, health and fertility of treated animals ([7]; GABA-treated WT mice): viable, healthy and fertile
- Life expectancy ([7]; WT mice, GABA treatment duration 1 month, treatment age 2.6 m): normal
- Life expectancy ([7]; WT mice, GABA treatment duration 2 months, treatment age 2.6 m): normal
- Life expectancy ([7]; WT mice, GABA treatment duration 3 months, treatment age 2.6 m): normal
- Basal glycemia ([7]; WT mice, GABA treatment duration 3 months, treatment age 2.6 m, monitored weekly): 142
- Diabetes reversal [8]: reverse diabetes
- Response to glucose challenge [9]: improved response with a lower raise in glycemia and a faster return to euglycemia
- Arx mRNA expression [10]: decrease in Arx mRNA expression
- Expression of β-cell markers in insulin-expressing cells [11]: uniformly expressed the bona fide β-cell markers
